Experimental data taken from PMC7068705 (2019).

Legend:
[1] = system: MGSA (RNA, aptamer) GGAUCCCGACUGGCGAGAGCCAGGUAACGAAUGGAUCCACACACACACACACACACACGCAUGCAUACCGACCAGAAUCAUGCAAGUGCGUAAGAUAGUCGCGGGCCGGGAUGCAUGC; test: fluorogen fluorescence on RNA array; settings: 20 mM NaCl, 6 mM MgCl2; 40 mM Tris-HCl pH 7.8, room temperature, 2 h; 40 µM malachite green; immobilised RNA
[2] = system: SpinachSA (RNA, aptamer) GGGGACGCGACUGAAUGAAAUGGUGAAGGACGGGUCCAGGUGUGGCUGCUUCGGCAGUGCAGCUUGUUGAGUAGAGUGUGAGCUCCGUAACUAGUCGCGUCUUUUUUUUUUUUUUUUUUCGAUCGAUACCGACCAGAAUCAUGCAAGUGCGUAAGAUAGUCGCGGGCCGGGAUCGAUCG; test: fluorogen fluorescence on RNA array, in situ during transcription; settings: 1X MEGAscript T7 transcription buffer, 37 °C, 90 min; 152 µM DFHBI; immobilised RNA

binding [1] | binding [2] | SMILES
yes |  | CN(C)c1ccc(C(=C2C=CC(=[N+](C)C)C=C2)c2ccccc2)cc1
 | yes | CC1=N/C(=C\c2cc(F)c(O)c(F)c2)C(=O)N1C
